The source of these data is article PMC4414920 (European journal of pharmaceutical sciences : official …, 2015).

Data set [1] deals with human liver microsomes. It counts as in vitro ADME. To be noted: 100 μM desferrioxamine, Chelex 100-treated buffers, 0.5 nmol microsomal P450, 30 minutes.
The conditions of data set [2]: humans; ref Hutt et al., 1986; cited from earlier work.
In data set [3] the test system is human liver microsomes. The data set is classed as in vitro ADME.
The test system of data set [4] is recombinant human P450s 2C8, 2C9, 2C19, 2D6, 2E1, and 3A4. To be noted: recombinant enzyme.
The conditions of data set [5]: cats; ref Parton et al., 2000; cited from earlier work.
For data set [6] the following is noted: dogs; ref Parton et al., 2000; cited from earlier work.
For data set [7] the following is noted: various animals; ref Trnavsky and Zachar, 1975; cited from earlier work.
For data set [8] the following is noted: humans; ref Trnavsky and Zachar, 1975; cited from earlier work.
In a further data set the test system is P450 2C19. To be noted: 50 mg/day for 14 days; in vivo mephenytoin oxidation; ref Chen et al., 2003; cited from earlier work.
[9] abbreviates: fluorescence detection, aspirin after deacetylation.

“Also recorded” adds a separate entry of the source. Like-named read-outs stand apart in the source and are kept apart here.

For `CC(=O)N(O)CCCCCNC(=O)CCC(=O)N(O)CCCCCNC(=O)CCC(=O)N(O)CCCCCN` [desferrioxamine], the “effect on formation of 2,3- and 2,5-DHBA” value in the data set on human liver microsomes [1] is recorded as “did not inhibit but instead increased; also recorded: no inhibition”.
Regarding `O=C(O)CNC(=O)c1ccccc1O` [salicyluric acid], in [2], the “share of the products of salicylic acid metabolism” value is 20–65%.
On to `O=C(O)c1ccccc1O` [salicylic acid], for which the “product formation (2,3-DHBA or 2,5-DHBA) in the absence of NADPH” value in the data set with human liver microsomes [3] is “not detected”. Also, in the data set on human liver microsomes [3] (setting [9]), the “2,3-DHBA formation with NADPH” value is recorded as “detected” and the “2,5-DHBA formation with NADPH” value is given as “detected”. Also, the directly excreted in data set [2] was 1–31%.
The term half-life denotes the time in which the quantity being followed falls by half. On to `CC(=O)Oc1ccccc1C(=O)O` [Aspirin, acetylsalicylic acid], for which, in the data set on human liver microsomes [3], the “product formation (2,3-DHBA or 2,5-DHBA) in the absence of NADPH” value was “No product formation”. Moreover, the “maximum rate of 5-hydroxylation compared with salicylic acid” value with human liver microsomes [3] (data not shown) is listed as “approximately five times lower”. Moreover, in the data set with human liver microsomes [3] (setting [9]), the “2,5-DHBA formation with NADPH” value is on record as “detected”. In data set [4], the “concentrations of the products with recombinant P450s” value is reported as “too low to quantitate”. For the same compound, the half-life in data set [5] was 22 h; in [6] it was 7.5 h; in [7], 1 to 38 h; in data set [8], ~ 6 h. Moreover, the “effect on P450 2C19” value in the data set with P450 2C19 is “increase”.
